Reference: US20060024844A1, “Method for the idenification of ligands” (priority 2002, published 2006)
Where two headings read alike, the source gives them in different places. Blank lines part the entries; values can stand above or below the compound they belong to.

How the values were obtained:
Assay type in all cases: binding
ER-α [1] = biological target: T1, ER-α (Homo sapiens, UniProt P03372); experiment: Microplate thermal shift assay (Thermofluor) of ER-α against a panel of steroid ligands
T1 sequence (P03372 1-595): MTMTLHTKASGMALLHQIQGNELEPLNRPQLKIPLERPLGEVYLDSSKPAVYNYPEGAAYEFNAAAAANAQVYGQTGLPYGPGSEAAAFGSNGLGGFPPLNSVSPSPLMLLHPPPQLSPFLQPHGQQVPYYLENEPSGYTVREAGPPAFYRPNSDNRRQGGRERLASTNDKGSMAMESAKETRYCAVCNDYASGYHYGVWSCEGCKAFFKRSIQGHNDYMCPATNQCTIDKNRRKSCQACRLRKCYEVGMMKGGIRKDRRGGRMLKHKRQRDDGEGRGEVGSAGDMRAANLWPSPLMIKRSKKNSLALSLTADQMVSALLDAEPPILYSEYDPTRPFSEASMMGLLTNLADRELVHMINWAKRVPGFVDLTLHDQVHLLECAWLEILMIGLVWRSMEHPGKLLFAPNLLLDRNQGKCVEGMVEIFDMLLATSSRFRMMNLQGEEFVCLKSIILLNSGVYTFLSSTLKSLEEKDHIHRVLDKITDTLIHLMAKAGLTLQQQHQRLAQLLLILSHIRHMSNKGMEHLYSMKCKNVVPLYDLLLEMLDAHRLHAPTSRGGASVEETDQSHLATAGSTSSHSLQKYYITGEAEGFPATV
Method: The concentration of ER-α in all of the experiments was 8 μM and the ligand concentration was 20 μM.
A 2 μL ligand solution at 2 times the final concentration was dispensed with a micropipette into a 384 well black wall Greiner plate. Then, 2 μL of the protein dye solution was dispensed on top of the ligand solution in the 384 well plate. The plates were spun to ensure mixing of the protein-dye and ligand solutions followed by layering of […], of silicone oil to prevent evaporation during heating of the samples.

ER-β = ER-β (Homo sapiens, UniProt Q92731); experiment: Microplate thermal shift assay (Thermofluor) of ER-β with ligands and co-regulators; conditions: for Change in Tm stabilization from the receptor-ligand ΔTm in the presence of SRC-1 NR2 / Change in Tm stabilization from the receptor-ligand ΔTm in the presence of SRC-3 NR2 / Change in Tm stabilization from the receptor-ligand ΔTm in the presence of SRC-3 / Change in Tm stabilization from the receptor-ligand ΔTm in the presence of NCoR1 / Observed ΔTm stabilization, ligand alone / ΔTm at 11 µM: ER-β 8 μM, ligand 20 μM; for Change in Tm stabilization from the receptor-ligand ΔTm in the presence of SRC-1 NR2: co-activator peptide SRC1—NR2; for Change in Tm stabilization from the receptor-ligand ΔTm in the presence of SRC-3 NR2: co-activator peptide SRC3—NR2; for Change in Tm stabilization from the receptor-ligand ΔTm in the presence of SRC-3 / ΔTm at 11 µM: co-activator protein SRC-3 11 μM; for Change in Tm stabilization from the receptor-ligand ΔTm in the presence of NCoR1: co-repressor peptide NCoR-1; for Observed ΔTm stabilization, ligand alone: no co-regulator, average of four experiments; for ΔTm at 11 µM: read-out: Change in Tm stabilization from the receptor-ligand ΔTm in the presence of SRC-3
Method: (§1) A 2 μL ligand solution at 2 times the final concentration was dispensed with a micropipette into a 384 well black wall Greiner plate. Then, 2 μL of the protein dye solution was dispensed on top of the ligand solution in the 384 well plate. The plates were spun to ensure mixing of the protein-dye and ligand solutions followed by layering of 1 μL of silicone oil to prevent evaporation during heating of the samples.

ER-α [2] = biological target: T1, ER-α; experiment: Microplate thermal shift assay (Thermofluor) of ER-α with ligands and co-regulators
Method: as §1

[3] = ER-α 8 μM, ligand 20 μM, average of four experiments, in °C (unit assumed)
[4] = ER-α 8 μM, ligand 20 μM, average of four experiments

Chain of ER-β (Q92731 whole entry, species assumed): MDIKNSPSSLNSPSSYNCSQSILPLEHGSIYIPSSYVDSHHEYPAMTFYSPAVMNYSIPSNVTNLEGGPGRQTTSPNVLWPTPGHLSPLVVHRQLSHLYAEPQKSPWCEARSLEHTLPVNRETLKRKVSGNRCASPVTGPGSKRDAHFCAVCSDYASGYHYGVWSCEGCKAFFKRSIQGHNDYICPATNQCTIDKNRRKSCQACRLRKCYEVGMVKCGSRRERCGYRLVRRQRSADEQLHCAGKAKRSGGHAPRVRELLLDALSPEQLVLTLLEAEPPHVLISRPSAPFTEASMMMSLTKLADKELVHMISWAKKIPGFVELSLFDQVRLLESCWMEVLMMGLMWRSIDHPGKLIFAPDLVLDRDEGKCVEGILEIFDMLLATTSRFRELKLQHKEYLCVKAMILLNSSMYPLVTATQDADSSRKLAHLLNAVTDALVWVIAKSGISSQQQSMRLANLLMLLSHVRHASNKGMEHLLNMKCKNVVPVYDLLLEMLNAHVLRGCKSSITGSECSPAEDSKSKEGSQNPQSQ

Compound: 4-hydroxytamoxifen [4-OH-tamoxifen]
Ligand function for ER-α (agonist or antagonist) (ER-α [1]): antagonist
ΔTm (ER-α [1]; in °C (unit assumed)): 19.99

Compound: C[C@@]12CCC[C@H]1[C@@H]1CCC3=CCCC[C@]3(C)[C@H]1CC2 [4-androstene]
ΔTm (ER-α [1]; [4]): −0.23

Compound: C[C@]12CCC(=O)C=C1CC[C@@H]1[C@@H]2C(=O)C[C@@]2(C)[C@H]1CC[C@]2(O)C(=O)CO [cortisone]
ΔTm (ER-α [1]; [3]): 0.01

Compound: CC(=O)[C@H]1CC[C@H]2[C@@H]3CCC4=CC(=O)CC[C@]4(C)[C@H]3CC[C@]12C [progesterone]
ΔTm (ER-α [1]; [4]): −0.19

Second part, led by results:

Change in Tm stabilization from the receptor-ligand ΔTm in the presence of SRC-1 NR2 (ER-β): 2.6
Change in Tm stabilization from the receptor-ligand ΔTm in the presence of SRC-3 NR2 (ER-β): 2.6
Change in Tm stabilization from the receptor-ligand ΔTm in the presence of SRC-3 (ER-β): 1.6
Change in Tm stabilization from the receptor-ligand ΔTm in the presence of NCoR1 (ER-β): −0.1
Observed ΔTm stabilization, ligand alone (ER-β): 15.0
Compound: 17-α-ethyleneestradiol [17-α-ethylen-E2]

Change in Tm stabilization from the receptor-ligand ΔTm in the presence of SRC-1 NR2 (ER-β): 4.4
Change in Tm stabilization from the receptor-ligand ΔTm in the presence of SRC-3 NR2 (ER-β): 4.4
Change in Tm stabilization from the receptor-ligand ΔTm in the presence of SRC-3 (ER-β): 2.2
Change in Tm stabilization from the receptor-ligand ΔTm in the presence of NCoR1 (ER-β): −0.7
Observed ΔTm stabilization, ligand alone (ER-β): 1.5
ΔTm (ER-α [1]; [3]): 5.98
Ligand function for ER-α (agonist or antagonist) (ER-α [1]; interpretation if ligands had been screened against co-regulators as in Example 1): agonists
Change in Tm stabilization from the receptor-ligand ΔTm in the presence of NCoR1 (ER-α [2]; ER-α 8 μM, ligand 20 μM, co-repressor peptide NCoR-1): −0.3
Observed ΔTm stabilization, ligand alone (ER-α [2]; ER-α 8 μM, ligand 20 μM, no co-regulator, average of four experiments): 1.8
Compound: COc1cc2c(cc1O)CC[C@@H]1[C@@H]2CC[C@]2(C)[C@@H](O)CC[C@@H]12 [2-methoxy-E2, 2-methoxyestradiol]

ΔTm at 11 µM (ER-β): 1.1 °C
Compound: C[C@]12CC[C@@H]3c4ccc(O)cc4CC[C@H]3[C@@H]1CC[C@@H]2O [Estradiol, β-estradiol]

ΔTm at 11 µM (ER-β): 0.6 °C
Observed ΔTm stabilization, ligand alone (ER-β): 13.6
Additional stabilization / ability to recruit co-activators in the presence of co-activator protein/peptide (ER-β; ER-β, result in words): no ability to recruit co-activators
ΔTm at 11 µM (ER-α [2]; ER-α 8 μM, ligand 20 μM, co-activator protein SRC-3 11 μM, read-out: Change in Tm stabilization from the receptor-ligand ΔTm in the presence of SRC-3): 0 °C
Additional stabilization / ability to recruit co-activators in the presence of co-activator protein/peptide (ER-α [2]; ER-α, result in words): no ability to recruit co-activators
Compound: C[C@]12CC[C@@H]3c4ccc(O)cc4C[C@@H](CCCCCCCCC[S+]([O-])CCCC(F)(F)C(F)(F)F)[C@H]3[C@@H]1CC[C@@H]2O (stereo partly shown) [ICI-182780]

ΔTm (ER-α [1]; [4]): −0.27
Compound: C[C@]12C[C@H](O)[C@H]3[C@@H](CCC4=CC(=O)CC[C@@]43C)[C@@H]1CC[C@@H]2C(=O)CO [corticosterone]

Preferential recruitment of co-activator, ER-α vs. ER-β (ER-α [2]; in the presence of estrogen-like ligands, result in words): preferentially recruited
Compound: SRC-3: co-activator protein SRC-3
Observed ΔTm stabilization by co-regulator alone (no ligand) (ER-α [2]; ER-α 8 μM, no ligand, SRC-3 11 μM, peptides 100 XM): 0.5 °C
